#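 Abbreviation: GI50, concentration required for 50% inhibition of growth. TGI is the concentration that stops growth completely.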
# Legend:
# Assay in all cases: inhibition of tumour cell growth, NCI panel, 384-well format
# [1] = test system: HOP-62 NSCLC
# [2] = test system: MDA-MB-435 melanoma
# [3] = test system: A549 NSCLC
# [4] = test system: COLO 205 colon
# [5] = test system: HL-60(TB) leukemia
# [6] = test system: PC-3 prostate
# [7] = test system: NCI-H322M lung
# [8] = test system: MDA-MB-231 breast
# [9] = test system: SNB-19 CNS
# [10] = test system: UO-31 renal
# [11] = test system: A498 renal
# [12] = test system: HT29 colon
# [13] = test system: MCF7 breast
# [14] = test system: NCI-H23 lung
# [15] = test system: 786-0 renal
# [16] = test system: EKVX NSCLC
# [17] = test system: T-47D breast
# [18] = test system: U251 glioblastoma
# [19] = test system: HOP-92 NSCLC
# [20] = test system: OVCAR-4 ovarian
# [21] = test system: NCI/ADR-RES ovarian
# [22] = test system: IGROV1 ovarian
# [23] = test system: SK-MEL-28 melanoma
# [24] = test system: SR leukemia
# [25] = test system: MDA-MB-468 breast
# [26] = test system: NCI-H460 NSCLC
# [27] = test system: HS 578T breast
# [28] = test system: HCC-2998 colon
# [29] = test system: OVCAR-5 ovarian
# [30] = test system: OVCAR-8 ovarian
# [31] = test system: SN12C renal
# [32] = test system: SF-295 CNS
# [33] = test system: HCT-116 colon
# [34] = test system: MALME-3M melanoma
# [35] = test system: SNB-75 CNS
# [36] = test system: NCI-H522 lung
# [37] = test system: ACHN renal
# [38] = test system: BT-549 breast
# [39] = test system: LOX IMVI melanoma
# [40] = test system: UACC-62 melanoma
# [41] = test system: SW-620 colon
# [42] = test system: SF-268 CNS
# [43] = test system: NCI-H226 lung
# [44] = test system: RPMI-8226 leukemia
# [45] = test system: TK-10 renal
# [46] = test system: SF-539 CNS
# [47] = test system: DU-145 prostate
# [48] = test system: MOLT-4 leukemia
# [49] = test system: UACC-257 melanoma
# [50] = test system: M14 melanoma
# [51] = test system: CAKI-1 renal
# [52] = test system: RXF 393 renal
# [53] = test system: SK-MEL-5 melanoma
# [54] = test system: OVCAR-3 ovarian
# [55] = test system: HCT-15 colon
# [56] = test system: SK-OV-3 ovarian
# [57] = test system: KM12 colon
structure (smiles),measurement,setting,value
COc1cc2nccc(Oc3ccc(NC(=O)Nc4cc(C)on4)c(Cl)c3)c2cc1OC,GI50,[1],9.77 µM
same,TGI,[1],> 100 µM
same,GI50,[2],7.46 µM
same,TGI,[2],73.4 µM
same,GI50,[3],3.25 µM
same,TGI,[3],11 µM
same,GI50,[4],2.59 µM
same,TGI,[4],8.26 µM
same,GI50,[5],2.87 µM
same,TGI,[5],5.3 µM
same,GI50,[6],6.29 µM
same,TGI,[6],> 100 µM
same,GI50,[7],3.91 µM
same,TGI,[7],13.9 µM
same,GI50,[8],2.38 µM
same,TGI,[8],6.83 µM
same,GI50,[9],16.6 µM
same,TGI,[9],> 100 µM
same,GI50,[10],2.75 µM
same,TGI,[10],5.98 µM
same,GI50,[11],5.6 µM
same,TGI,[11],21 µM
same,GI50,[12],3.17 µM
same,TGI,[12],12.1 µM
same,GI50,[13],4.99 µM
same,TGI,[13],31.6 µM
same,GI50,[14],2.65 µM
same,TGI,[14],7.77 µM
same,GI50,[15],3.79 µM
same,TGI,[15],12 µM
same,GI50,[16],4.4 µM
same,TGI,[16],20.9 µM
same,GI50,[17],4.17 µM
same,TGI,[17],23.1 µM
same,GI50,[18],9.48 µM
same,TGI,[18],> 100 µM
same,GI50,[19],1.7 µM
same,TGI,[19],3.33 µM
same,GI50,[20],5.71 µM
same,TGI,[20],25 µM
same,GI50,[21],2.9 µM
same,TGI,[21],8.81 µM
same,GI50,[22],2.22 µM
same,TGI,[22],5.21 µM
same,GI50,[23],4.26 µM
same,TGI,[23],21 µM
same,GI50,[24],3.73 µM
same,TGI,[24],5.34 µM
same,GI50,[25],3.51 µM
same,TGI,[25],8.5 µM
same,GI50,[26],4.58 µM
same,TGI,[26],19 µM
same,GI50,[27],2.08 µM
same,TGI,[27],7.41 µM
same,GI50,[28],23.9 µM
same,TGI,[28],91.9 µM
same,GI50,[29],4.4 µM
same,TGI,[29],21.2 µM
same,GI50,[30],4.45 µM
same,TGI,[30],41 µM
same,GI50,[31],2.95 µM
same,TGI,[31],9.88 µM
same,GI50,[32],3.18 µM
same,TGI,[32],11.5 µM
same,GI50,[33],3.51 µM
same,TGI,[33],11.5 µM
same,GI50,[34],1.81 µM
same,TGI,[34],4.39 µM
same,GI50,[35],2.53 µM
same,TGI,[35],6.7 µM
same,GI50,[36],2.51 µM
same,TGI,[36],6.54 µM
same,GI50,[37],3.53 µM
same,TGI,[37],11.6 µM
same,GI50,[38],3.2 µM
same,TGI,[38],7.18 µM
same,GI50,[39],4.08 µM
same,TGI,[39],11 µM
same,GI50,[40],2.9 µM
same,TGI,[40],13.5 µM
same,GI50,[41],2.82 µM
same,TGI,[41],7.18 µM
same,GI50,[42],3.06 µM
same,TGI,[42],8.86 µM
same,GI50,[43],0.906 µM
same,TGI,[43],3.39 µM
same,GI50,[44],3.79 µM
same,TGI,[44],15.1 µM
same,GI50,[45],19.9 µM
same,TGI,[45],> 100 µM
same,GI50,[46],1.24 µM
same,TGI,[46],2.95 µM
same,GI50,[47],5.63 µM
same,TGI,[47],81.3 µM
same,GI50,[48],1.45 µM
same,TGI,[48],2.99 µM
same,GI50,[49],11.9 µM
same,TGI,[49],30.3 µM
same,GI50,[50],3.72 µM
same,TGI,[50],15.3 µM
same,GI50,[51],2.67 µM
same,TGI,[51],6.87 µM
same,GI50,[52],1.65 µM
same,TGI,[52],4.28 µM
same,GI50,[53],3.35 µM
same,TGI,[53],11.8 µM
same,GI50,[54],5.25 µM
same,TGI,[54],20.1 µM
same,GI50,[55],4.16 µM
same,TGI,[55],> 100 µM
same,GI50,[56],6.78 µM
same,TGI,[56],67.1 µM
same,GI50,[57],0.346 µM
same,TGI,[57],> 100 µM
